Source: ChEMBL document CHEMBL1133375, “Exploring the chiral space within the active site of alpha-thrombin with a constrained mimic of D-Phe-Pro-Arg--design, synthesis, inhibitory activity, and X-ray structure of an enzyme-inhibitor complex” (Bioorg Med Chem Lett, 2000)

What was measured:
Prothrombin [1] = target: T1, Prothrombin (Homo sapiens, UniProt P00734); experiment: Concentration required for 50 percent inhibition of Prothrombin
Prothrombin [2] = target: T1, Prothrombin; experiment: The compound was evaluated for binding affinity against Prothrombin

Compound | IC50 (Prothrombin [1]) | Ki (Prothrombin [2])
NCc1ccc(CNC(=O)[C@@H]2CC[C@H]3[C@@H](OCc4ccccc4)CCC(=O)N23)cc1 | 12600 nM | 
C[C@]1(O)CC[C@@H]2CC[C@@H](C(=O)NCc3ccc(C(=N)N)cc3)N2C1=O | 251 nM | 125 nM
CO[C@H]1C[C@@](O)(Cc2ccccc2)C(=O)N2[C@H](C(=O)NCc3ccc(C(=N)N)cc3)CC[C@@H]12 | 251 nM | 125 nM
N=C(N)c1ccc(CNC(=O)[C@@H]2CC[C@H]3CC[C@@](O)(Cc4ccccc4)C(=O)N32)cc1 | 20 nM | 9 nM
O=C(NCC1CCNCC1)[C@@H]1CC[C@H]2[C@@H](OCc3ccccc3)CCC(=O)N12 | 12600 nM | 
O=C(NCC1CCNCC1)[C@@H]1CC[C@H]2[C@@H](OCc3ccccc3)C[C@H](O)C(=O)N12 | 12600 nM | 
NCc1ccc(CNC(=O)[C@@H]2CC[C@H]3[C@@H](OCc4ccccc4)C[C@H](O)C(=O)N23)cc1 | 12600 nM | 
